Test results: patent US6846492B2, “Use of phenylethylamine derivatives for the antimicrobial treatment of surfaces” (Ciba Specialty Chemicals Corporation, priority 2000, dated 2005)

Columns and labels:
Assay type in all cases: cell-based
[1] = system: Aspergillus niger ATCC 6275 (= AN); experiment: MIC determination in microtiter plates, Aspergillus niger; conditions: Tables 2a/2b, 5 days at 28° C., ≦20% growth, optical density 620 nm, some approximate values
Procedure: (§1) Determination of the Minimum Inhibitory Concentration (MIC Value) in Microtiter Plates
(§2) Casein/soybean flour peptone bouillon for the preparation of pre-cultures of the test bacteria and yeast.
(§3) Mycological slant agar for the pre-culture of moulds
(§4) The test substances are pre-dissolved in dimethyl sulfoxide (DMSO) and tested in a dilution series of 1:2.
(§5) Bacteria and yeast are cultured overnight in CASO bouillon, the mould is cultured overnight on mycological slant agar, and washed off with 10 ml of 0.85% sodium chloride solution (+0.1% TritonX-100).
(§6) All the test organisms are adjusted to an organism count of 1−5×10^6 CFU/ml using 0.85% sodium chloride solution.
(§7) The test substances are pre-pipetted into microtiter plates in an amount of 8 μl per well.
(§8) Pre-diluted organism suspensions are diluted 1:100 in CASO bouillon (bacteria and yeast) or Sabouraud 2% glucose bouillon (mould) and are added in an amount of 192 μl per well to the test substances.
(§9) The test batches are incubated for 48 hours at 37° C. (bacteria and yeast) or for 5 days at 28° C. (mould).
(§10) After incubation, the growth is evaluated by reference to the turbidity of the test batches (optical density) at 620 nm in a microplate reader.
(§11) One microtiter plate is used for each test organism and substance concentration. All the substances are tested in duplicate.

[2] = system: Candida albicans ATCC 10231 (= CA); experiment: MIC determination in microtiter plates, Candida albicans; conditions: Tables 2a/2b, 48 hours at 37° C., ≦20% growth, optical density 620 nm, some approximate values
Procedure: as §1, §2, §3, §4, §5, §6, §7, §8, §9, §10, §11

[3] = system: Escherichia coli NCTC 8196 (= EC); experiment: MIC determination in microtiter plates, Escherichia coli; conditions: Tables 2a/2b, 48 hours at 37° C., ≦20% growth, optical density 620 nm, some approximate values
Procedure: as §1, §2, §3, §4, §5, §6, §7, §8, §9, §10, §11

[4] = system: Pseudomonas aeruginosa CIP A-22 (= PA); experiment: MIC determination in microtiter plates, Pseudomonas aeruginosa; conditions: Tables 2a/2b, 48 hours at 37° C., ≦20% growth, optical density 620 nm, some approximate values
Procedure: as §1, §2, §3, §4, §5, §6, §7, §8, §9, §10, §11

[5] = system: Staphylococcus hominis DMS 20328 (= SH); experiment: MIC determination in microtiter plates, Staphylococcus hominis; conditions: Tables 2a/2b, 48 hours at 37° C., ≦20% growth, optical density 620 nm, tested at 120, 60, 30, 15, 7.5 and 3.5 ppm, some approximate
Procedure: as §1, §2, §3, §4, §5, §6, §7, §8, §9, §10, §11

| SMILES | MIC [ppm] AN [1] [ppm] | MIC [ppm] CA [2] [ppm] | MIC [ppm] EC [3] | MIC [ppm] PA [4] [ppm] | MIC [ppm] SH [5] [ppm] |
| --- | --- | --- | --- | --- | --- |
| NCCc1cc(OCc2ccc(F)cc2)c(OCc2ccc(F)cc2)c(OCc2ccc(F)cc2)c1 [Compound 68] | >120 | 3.75 | 3.75 ppm | >120 | 3.75 |
| CC(C)(C)OC(=O)COc1ccc(CCN)cc1OCC(=O)OC(C)(C)C [Compound 25] | 15 | >120 | >120 ppm | >120 | >120 |
| N#Cc1ccc(COc2ccc(CCN)cc2OCc2ccc(C#N)cc2)cc1 [Compound 13] | >120 | >120 | 120 ppm | >120 | 120 |
| CCOC(=O)COc1ccc(CCN)cc1OCC(=O)OCC [Compound 22] | >120 | >120 | >120 ppm | >120 | >120 |
| CCCCCCCOc1ccc(CCN)cc1OCCCCCCC [Compound 37] | >120 | 30 | 30 ppm | >120 | 3.75 |
| CC(C)Oc1ccc(CCN)cc1OC(C)C [Compound 31] | >120 | >120 | >120 ppm | >120 | >120 |
| N#Cc1ccccc1COc1ccc(CCN)cc1OCc1ccccc1C#N [Compound 11] | >120 | >120 | >120 ppm | >120 | 120 |
| CCCCOc1cc(CCN)cc(OCCCC)c1OCCCC [Compound 81] | >120 | 30 | 7,5 ppm | 120 | 15 |
| CC(C)Oc1cc(CCN)cc(OC(C)C)c1OC(C)C [Compound 82] | >120 | >120 | >120 ppm | >120 | >120 |
| COC(=O)c1ccc(COc2ccc(CCN)cc2OCc2ccc(C(=O)OC)cc2)cc1 [Compound 14] | >120 | 30 | 30 ppm | 120 | 7.5 |
| Cc1ccccc1COc1ccc(CCN)cc1OCc1ccccc1C [Compound 5] | 7.5 | 15 | 15 ppm | >120 | 7.5 |
| CC(C)CCOc1cc(CCN)cc(OCCC(C)C)c1OCCC(C)C [Compound 84] | 15 | 15 | 7.5 ppm | >120 | 3.75 |
| CCC(C)Oc1ccc(CCN)cc1OC(C)CC (centres unmarked) [Compound 32] | >120 | >120 | >120 ppm | >120 | >120 |
| CCOC(=O)CCCCOc1ccc(CCN)cc1OCCCCC(=O)OCC [Compound 28] | >120 | >120 | >120 ppm | >120 | >120 |
| NCCc1cc(OCC(=O)c2ccccc2)c(OCC(=O)c2ccccc2)c(OCC(=O)c2ccccc2)c1 [Compound 97] | >120 | >120 | >120 ppm | >120 | >120 |
| CCCOc1ccc(CCN)cc1OCCC [Compound 29] | >120 | >120 | >120 ppm | >120 | >120 |
